Reference: patent US6472418B1, “Non-peptide NK1 receptors antagonists” (Warner-Lambert Company, priority 1998, dated 2002)

What follows are compounds tested against T1, Human NK1 Receptor (Homo sapiens, UniProt P25103) (assay: In Vitro Human NK1 Receptor Binding Assay ([125I]Bolton-Hunter substance P displacement, IM9 cells)). Details: Human lymphoma IM9 cells, [125I]Bolton-Hunter substance P (0.05-0.1 nM), 50 min at 21° C.; Table 1; read-out: NK1 binding IC50.
T1 construct: endogenous in cells; host or cells: Human lymphoma IM9 cells (whole cells)
T1 sequence (P25103 whole entry): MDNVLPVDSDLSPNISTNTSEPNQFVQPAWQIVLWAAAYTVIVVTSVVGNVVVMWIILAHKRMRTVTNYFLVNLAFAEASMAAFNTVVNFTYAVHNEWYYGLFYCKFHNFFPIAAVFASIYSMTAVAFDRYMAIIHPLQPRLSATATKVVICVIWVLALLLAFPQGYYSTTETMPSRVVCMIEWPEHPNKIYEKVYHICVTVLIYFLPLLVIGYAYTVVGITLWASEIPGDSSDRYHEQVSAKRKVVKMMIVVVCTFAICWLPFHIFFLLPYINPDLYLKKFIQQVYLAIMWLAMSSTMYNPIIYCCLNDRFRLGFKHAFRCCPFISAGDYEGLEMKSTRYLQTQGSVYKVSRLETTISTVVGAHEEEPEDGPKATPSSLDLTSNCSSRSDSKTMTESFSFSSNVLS
Method in brief: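 Test compounds competed with 0.05-0.1 nM [125I]Bolton-Hunter substance P for binding to intact IM9 cells over 50 min at 21° C, pH 7.4 buffer with MnCl2 and peptidase inhibitors. […] [Sar9, Met(O2)11] substance P gave non-specific binding. Bound counts were measured after filtration and fitted iteratively.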

| IC50 [nM] | Compound |
| --- | --- |
| 344 | C[C@H](NC(=O)[C@@H](Cc1c[nH]c2ccccc12)NCc1cccc(O)c1)c1ccccc1 (relative stereo) [Example 17, 2-(3-Hydroxy-benzylamino)-3-(1H-indol-3-yl)-N-(1-phenyl-ethyl)-propionamide, [R-(R*,S*)]] |

Same assay, conditions: Human lymphoma IM9 cells, [125I]Bolton-Hunter substance P; Table 3, array-synthesis products; read-out: IC50 (nM) hNK1

| Compound | IC50 [nM] |
| --- | --- |
| Nc1ccc(CNC(=O)C(Cc2c[nH]c3ccccc23)NCc2cc3ccccc3o2)cc1 (centres unmarked) [Example 306, N-(4-Amino-benzyl)-2-[(benzofuran-2-ylmethyl)-amino]-3-(1H-indol-3-yl)-propionamide] | 639 |
| CC(NC(=O)C(Cc1c[nH]c2ccccc12)NCc1cc2ccccc2o1)c1ccc(Br)cc1 (centres unmarked) [Example 290, 2-[(Benzofuran-2-ylmethyl)-amino]-N-[1-(4-bromo-phenyl)-ethyl]-3-(1H-indol-3-yl)-propionamide] | 8 |
| O=C(NC(CO)CC1CCCCC1)C(Cc1c[nH]c2ccccc12)NCc1cc2ccccc2o1 (centres unmarked) [Example 277, 2-[(Benzofuran-2-ylmethyl)-amino]-N-(2-cyclohexyl-1-hydroxymethyl-ethyl)-3-(1H-indol-3-yl)-propionamide] | 2200 |
| O=C(NC1CCc2ccccc21)C(Cc1c[nH]c2ccccc12)NCc1cc2ccccc2o1 (centres unmarked) [Example 195, 2-[(Benzofuran-2-ylmethyl)-amino]-N-indan-1-yl-3-(1H-indol-3-yl)-propionamide] | 1750 |

The remaining lines, values ahead:

| IC50 [nM] | Compound |
| --- | --- |
| 21 | CC(NC(=O)C(Cc1c[nH]c2ccccc12)NCc1cc2ccccc2o1)c1ccn(C)c1 (centres unmarked) [Example 230, 2-[(Benzofuran-2-ylmethyl)-amino]-3-(1H-indol-3-yl)-N-[1-(1-methyl-1H-pyrrol-3-yl)-ethyl]-propionamide] |
| 221 | O=C(NCc1ccccc1Cl)C(Cc1c[nH]c2ccccc12)NCc1cc2ccccc2o1 (centres unmarked) [Example 298, 2-[(Benzofuran-2-ylmethyl)-amino]-N-(2-chloro-benzyl)-3-(1H-indol-3-yl)-propionamide] |
| 420 | O=C(NCc1ccc(C(F)(F)F)cc1)C(Cc1c[nH]c2ccccc12)NCc1cc2ccccc2o1 (centres unmarked) [Example 283, 2-[(Benzofuran-2-ylmethyl)-amino]-3-(1H-indol-3-yl)-N-(4-trifluoromethyl-benzyl)-propionamide] |
| 12 | O=C(NCc1ccc(F)cc1)C(Cc1c[nH]c2ccccc12)NCc1cc2ccccc2o1 (centres unmarked) [Example 244, 2-[(Benzofuran-2-ylmethyl)-amino]-N-(4-fluoro-benzyl)-3-(1H-indol-3-yl)-propionamide] |
| > 10000 | O=C(O)C1CCC(CNC(=O)C(Cc2c[nH]c3ccccc23)NCc2cc3ccccc3o2)CC1 (centres unmarked) [Example 286, 4-{[2-[(Benzofuran-2-ylmethyl)-amino]-3-(1H-indol-3-yl)-propionylamino]-methyl}-cyclohexanecarboxylic acid] |
| 54 | O=C(NCC1CCCCC1)C(Cc1c[nH]c2ccccc12)NCc1cc2ccccc2o1 (centres unmarked) [Example 226, 2-[(Benzofuran-2-ylmethyl)-amino]-N-cyclohexylmethyl-3-(1H-indol-3-yl)-propionamide] |
| 7 | CC(NC(=O)C(Cc1c[nH]c2ccccc12)NCc1cc2ccccc2o1)c1ccc(Cl)cc1 (centres unmarked) [Example 264, 2-[(Benzofuran-2-ylmethyl)-amino]-N-[1(4-chloro-phenyl)-ethyl]-3-(1H-indol-3-yl)-propionamide] |
| > 10000 | O=C(NCC1CCNCC1)C(Cc1c[nH]c2ccccc12)NCc1cc2ccccc2o1 (centres unmarked) [Example 203, 2-[(Benzofuran-2-ylmethyl)-amino]-3-(1H-indol-3-yl)-N-piperidin-4-ylmethyl-propionamide] |

Same assay, conditions: Table 4; [125I]Bolton-Hunter substance P displacement, human IM9 cells; read-out: IC50 (nM) hNK1

| Compound | IC50 [nM] |
| --- | --- |
| CC(NC(=O)C(C)(Cc1c[nH]c2ccccc12)NCc1ccc(C=Cc2ccccc2)o1)c1ccccc1 (centres unmarked) [compound 325, 3-(1H-Indol-3-yl)-2-methyl-N-(1-phenyl-ethyl)-2-[(5-styryl-furan-2-ylmethyl)-amino]-propionamide] | 72 |
| 2-[3-(4-Benzyloxy-phenyl)-allylamino]-3-(1H-indol-3-yl)-2-methyl-N-(1-phenyl-ethyl)-propionamide [compound 340] | 4910 |
| CC(NC(=O)C(C)(Cc1c[nH]c2ccccc12)NCc1cnc2ccccc2c1)c1ccccc1 (centres unmarked) [compound 315, 3-(1H-Indol-3-yl)-2-methylN-(1-phenyl-ethyl)-2-[(quinolin-3-ylmethyl)-amino]-propionamide] | 1070 |
| 2-(2,3-Diphenyl-allylamino)-3-(1H-indol-3-yl)-2-methyl-N-(1-phenyl-ethyl)-propionamide [compound 338] | > 10000 |

Same assay, conditions: Table 5; [125I]Bolton-Hunter substance P displacement, human IM9 cells; read-out: IC50 (nM) hNK1

| IC50 [nM] | Compound |
| --- | --- |
| 587 | CC(NC(=O)C(Cc1c[nH]c2ccccc12)NCc1ccc(OCc2ccccc2)cc1)c1ccccc1 (centres unmarked) [compound 379] |
| 729 | CC(NC(=O)C(Cc1c[nH]c2ccccc12)NCc1ccccc1OCc1cccnc1)c1ccccc1 (centres unmarked) [compound 361] |
| 236 | CCOC(=O)Nc1ccccc1CNC(Cc1c[nH]c2ccccc12)C(=O)NC(C)c1ccccc1 (centres unmarked) [compound 367] |
| 165 | CCCc1nc(-n2cccc2)c(CNC(Cc2c[nH]c3ccccc23)C(=O)NC(C)c2ccccc2)[nH]1 (centres unmarked) [compound 375] |

| Compound | IC50 [nM] |
| --- | --- |
| 2-(2,3-Diphenyl-allylamino)-3-(1H-indol-3-yl)-2-methyl-N-(1-phenyl-ethyl)-propionamide [compound 338] | > 10000 |

Same assay, conditions: human NK1 receptor, IM9 cells, [125I]Bolton-Hunter substance P; read-out: IC50 (nM) hNK1

| Compound | IC50 [nM] |
| --- | --- |
| CC(Cc1c[nH]c2ccccc12)(NCc1cc2ccccc2o1)C(=O)NCCc1ccc(N)cc1 (centres unmarked) [compound 56, N-[2-(4-Amino-phenyl)-ethyl]-2-[(benzofuran-2-ylmethyl)-amino]-3-(1H-indol-3-yl)-2-methyl-propionamide] | 3230 |
| Cc1cc(C)c(CNC(=O)C(C)(Cc2c[nH]c3ccccc23)NCc2cc3ccccc3o2)cn1 (centres unmarked) [compound 169, 2-[(Benzofuran-2-ylmethyl)-amino]-N-(4,6-dimethyl-pyridin-3-ylmethyl)-3-(1H-indol-3-yl)-2-methyl-propionamide] | 6020 |
| CC(Cc1c[nH]c2ccccc12)(NCc1cc2ccccc2o1)C(=O)NCC(O)c1ccccc1 (centres unmarked) [compound 50, 2-[(Benzofuran-2-ylmethyl)-amino]-N-(2-hydroxy-2-phenyl-ethyl)-3-(1H-indol-3-yl)-2-methyl-propionamide] | 1330 |
| CN(C)c1cccc(C2(CNC(=O)C(C)(Cc3c[nH]c4ccccc34)NCc3cc4ccccc4o3)CCCC2)c1 (centres unmarked) [compound 102, 2-[(Benzofuran-2-ylmethyl)-amino]-N-[1-(3-dimethylamino-phenyl)-cyclopentylmethyl]-3-(1H-indol-3-yl)-2-methyl-propionamide] | > 10000 |
| CC(Cc1c[nH]c2ccccc12)(NCc1cc2ccccc2o1)C(=O)NC1CCc2ccccc21 (centres unmarked) [compound 158, 2-[(Benzofuran-2-ylmethyl)-amino]-N-indan-1-yl-3-(1H-indol-3-yl)-2-methyl-propionamide] | 2570 |
| CC(Cc1c[nH]c2ccccc12)(NCc1cc2ccccc2o1)C(=O)NCc1ccccc1Cl (centres unmarked) [compound 189, 2-((Benzofuran-2-ylmethyl)-amino]-N-(2-chloro-benzyl)-3-(1H-indol-3-yl)-2-methyl-propionamide] | 1130 |
| CNCCNC(=O)C(C)(Cc1c[nH]c2ccccc12)NCc1cc2ccccc2o1 (centres unmarked) [compound 76, 2-[(Benzofuran-2-ylmethyl)-amino]-3-(1H-indol-3-yl)-2-methyl-N-(2-methylamino-ethyl)-propionamide] | 3700 |
| CC(Cc1c[nH]c2ccccc12)(NCc1cc2ccccc2o1)C(=O)NCc1nc2ccccc2[nH]1 (centres unmarked) [compound 103, 2-[(Benzofuran-2-ylmethyl)-amino]-N-(1H-benzoimidazol-2-ylmethyl)-3-(1H-indol-3-yl)-2-methyl-propionamide] | 74 |
| CC(Cc1c[nH]c2ccccc12)(NCc1cc2ccccc2o1)C(=O)NCc1cc(Br)ccc1O (centres unmarked) [compound 170, 2-[(Benzofuran-2-ylmethyl)-amino]-N-(5-bromo-2-hydroxy-benzyl)-3-(1H-indol-3-yl)-2-methyl-propionamide] | 2380 |

The next lines start with the values.

| IC50 [nM] | Compound |
| --- | --- |
| > 10000 | CC(Cc1c[nH]c2ccccc12)(NCc1cc2ccccc2o1)C(=O)NCC(CC(=O)O)c1ccccc1 (centres unmarked) [compound 152, 4-[2-[(Benzofuran-2-ylmethyl)-amino]-3-(1H-indol-3-yl)-2-methyl-propionylamino]-3-phenyl-butyric acid] |
| > 10000 | CC(Cc1c[nH]c2ccccc12)(NCc1cc2ccccc2o1)C(=O)NCCN1CCC2CCCCC21 (centres unmarked) [compound 123, 2-[(Benzofuran-2-ylmethyl)-amino]-3-(1H-indol-3-yl)-2-methyl-N-[2-(octahydro-indol-1-yl)-ethyl]-propionamide] |
| > 10000 | CC(Cc1c[nH]c2ccccc12)(NCc1cc2ccccc2o1)C(=O)NCC1(c2ccccc2)OCCO1 (centres unmarked) [compound 105] |
| > 10000 | COC1C=CC(CNC(=O)C(C)(Cc2c[nH]c3ccccc23)NCc2cc3ccccc3o2)(OC)O1 (centres unmarked) [compound 149, 2-[(Benzofuran-2-ylmethyl)-amino]-N-(2,5-dimethoxy-2,5-dihydro-furan-2-ylmethyl)-3-(1H-indol-3-yl)-2-methyl-propionamide] |
| > 10000 | CC(Cc1c[nH]c2ccccc12)(NCc1cc2ccccc2o1)C(=O)NCCCN1CCOCC1 (centres unmarked) [compound 185, 2-[(Benzofuran-2-ylmethyl)-amino]-3-(1H-indol-3-yl)-2-methyl-N-(3-morpholin-4-yl-propyl)-propionamide] |
| 17 | CC(Cc1c[nH]c2ccccc12)(NCc1cc2ccccc2o1)C(=O)NCc1cccc(Cl)c1 (centres unmarked) [compound 77, 2-[(Benzofuran-2-ylmethyl)-amino]-N-(3-chloro-benzyl)-3-(1H-indol-3-yl)-2-methyl-propionamide] |
| 12 | CC(NC(=O)C(C)(Cc1c[nH]c2ccccc12)NCc1cc2ccccc2o1)c1ccccn1 (centres unmarked) [compound 69, 2-[(Benzofuran-2-ylmethyl)-amino]-3-(1H-indol-3-yl)-2-methyl-N-(1-pyridin-2-yl-ethyl)-propionamide] |
